Patent US4000269A, “S-(α-substituted-arylmethylthio, -arylmethylsulfinyl, and -arylmethylsulfonyl)methyl phosphorus esters used as insecticides” (priority 1975, dated 1976)

Key:
Type in all cases: in vivo
[1] = tested on: Southern corn rootworm larvae (Diabrotica undecimpunctata); assay: Southern Corn Rootworm Control (treated soil, dust on talc); settings: 144 h, potting soil, mortality after 6 days, read-out: Percent Control of Southern Corn Rootworm Larvae; for mortality at 1120.85 g/ha: 1 lbs./Acre; for mortality at 11208.5 g/ha: 10 lbs./Acre; for mortality at 56042.5 g/ha: 50 lbs./Acre
Method: Compounds are prepared as dusts on talc. The compounds are dissolved in acetone, and appropriate rates obtained by serial dilution. One and one-quarter milliliters of solution is pipetted onto a standard volume of dust in 1 -ounce jars, and the acetone allowed to evaporate. Twenty-five milliliters of moist soil and about 200 millet seeds are placed in the jar, capped and the contents thoroughly mixed. Ten second-instar larvae of the Southern corn rootworm (Diabrotica undecimpunctata ) are then placed in each jar. Mortality counts are made after 6 days and percent mortality determined.

[2] = tested on: Tarnished Plant Bug (Lygus lineolaris); assay: A. Tarnished Plant Bug leaf-dip test; settings: 48 h, 100 ppm., 2 days, read-out: Percent Mortality, Tarnished plant Bug
Method: (§1) Test compounds are prepared as 1000 ppm. solutions in 10 % acetone, 0.2 % Alrodyne 315 , and 89.8 % water. A tenfold dilution is made with 65 % acetone and 35 % water. The primary leaves of Sieva lima bean plants are dipped for 3 to 5 seconds in the test solutions and placed in an exhaust hood to dry. When dry, each leaf is placed in a 4 -inch petri dish with a moist filter paper on the bottom. Ten adult Lygus bugs are aspirated from the stock culture and placed in the petri dish. The dishes are covered and held at 80° F. and 50 % R.H. After 2 days, mortality counts are made.

[3] = tested on: Boll Weevil (Anthonomus grandis); assay: B. Boll Weevil leaf-dip test; settings: 48 h, 100 ppm., 2 days, read-out: Percent Mortality, Boll Weevil
Method: as §1, with “The first or second true leaf” for “The primary leaves”, “of young cotton” for “of Sieva lima bean”, “plants is” for “plants are”, “test solution” for “test solutions”, “adult boll weevils” for “adult Lygus bugs”, “are removed” for “are aspirated”

Bean Aphid (Aphis fabae) = assay: C. Bean Aphid spray test; settings: 48 h, 2 days, read-out: Percent Mortality, Bean Aphid
Method: Compounds are tested at 100 , 10 and 1 ppm. in solution or suspension in 65 % acetone/35 % water. Two-inch fiber pots each containing a nasturtium plant 2 inches high and infested with about 150 aphids 2 days earlier, are placed on a turntable (4 RPM) and sprayed for two revolutions with a No. 154 DeVilbiss Atomizer at 20 psi. air pressure. The spray tip is held about 6 inches from the plants, and the spray is directed so as to give complete coverage of the aphids and the plants. The sprayed plants are laid on their sides on white enamel trays. Mortality estimates are made after holding for 2 days at 70° F. and 50% R.H.

[4] = tested on: Southern Armyworm (Prodenia eridania); assay: D. Southern Armyworm leaf-dip test; settings: Spodoptera eridania, 48 h, 2 days, read-out: Percent Mortality, Southern Armyworm
Method: Compounds are tested at 1000 and 100 ppm. in solution or suspension in 65 % acetone/35 % water. Sieva lima bean primary leaves are dipped for 3 seconds in the test solution and set in a hood on a screen to dry. When dry, each leaf is placed in a 4 -inch petri dish which has a moist filter paper in the bottom and ten third-instar armyworm larvae about 3/8 inch long. The dishes are covered and held at 80° F., and 60 % R.H. After 2 days, mortality counts and estimates of the amount of feeding are made. Compounds showing partial kill and/or inhibition of feeding are held an extra day for further observations.

[5] = tested on: Two-spotted Spider Mite (Tetranychus urticae); assay: E. Two-spotted Spider Mite plant-dip test; settings: 48 h, read-out: Percent Mortality, Two-spotted Spider Mite; for mortality at 100 ppm: 2 days
Method: Sieva lima bean plants with primary leaves 3 to 4 inches long are infested with about 100 adult mites per leaf 4 hours before use in this test. The mite and egg infested plants are dipped for 3 seconds in the same solutions used in the aphid test, and the plants set in the hood to dry. They are held for 2 days at 80° F., 60% R.H., and the adult mite mortality estimated on one leaf under a steroscopic microscope. The other leaf is left on the plant an additional 5 days and then examined at 10 X power to estimate the kill of eggs and of newly hatched nymphs, giving a measure of ovicidal and residual action, respectively.

[6] = tested on: Mexican Bean Beetle (Epilachna varivestis); assay: F. Mexican Bean Beetle leaf-dip test; settings: 48 h, 2 days, read-out: Percent Mortality, Mexican Bean Beetle
Method: Compounds to be tested are made up as 100 or 10 ppm. solutions in 65 % acetone/35 % water. Sieva lima bean leaves are dipped in the test solution and set in the hood to dry. When dry, they are placed in 4 -inch petri dishes which have a moist filter paper in the bottom, and 10 third-instar bean beetles are added to each dish. The dishes are covered and held at 80° F., 60 % R.H. After 2 days, mortality counts and estimates of the amount of feeding are made. Compounds showing kills greater than 75 % are further tested at tenfold dilutions in 65 % acetone/35 % water.

[7] = tested on: Western Potato Leafhopper (Empoasca abrupta); assay: G. Western Potato Leafhopper plant-dip test; settings: 48 h, 2 days, read-out: Percent Mortality, Western Potato Leafhopper
Method: Sieva lima bean plants with the primary leaf expanded to 3 to 4 inches are dipped into 100 or 10 ppm. 50 % acetone/50 % water solutions and set in the hood to dry. A 1 -inch piece of the tip of a treated leaf is cut off and placed in a 4 -inch petri dish with a moist filter paper in the bottom. From 3 to 10 second-instar nymphs are tapped from the culture plants into the test dish and rapidly covered. Mortality counts are made after 2 days at 80° F., and 50 % R.H.

[8] = tested on: Malaria Mosquito (Anopheles quadrimaculatus); assay: H. Malaria Mosquito Adult Test; settings: 24 h, adults, 1 day, read-out: Percent Mortality, Malaria Mosquito
Method: Solutions of 65% acetone/35% water containing 10 ppm. of test compound are poured into wide-mouth 2-ounce jars, each containing a microscope slide. The slides are removed from the test solution with forceps and laid horizontally to dry on a wide-mouth 4-ounce bottle. When dry, they are placed in the same 4-ounce bottle and 10 4- to 5-day-old mosquitoes of mixed sexes are added to each bottle. A piece of cotton gauze held on by an elastic band serves as a lid, and wad of cotton soaked in 10% honey solution serves as food. Mortality counts are made after 1 day at 80° F., 50% R.H. (relative humidity) Data obtained with the above procedures are reported in Table II below.

Row | SMILES | mortality at 1120.85 g/ha [1] | mortality at 11208.5 g/ha [1] | mortality at 56042.5 g/ha [1] | mortality at 100 ppm [2] | mortality at 100 ppm [3] | mortality at 1 ppm (Bean Aphid (Aphis fabae)) | mortality at 10 ppm (Bean Aphid (Aphis fabae)) | mortality at 100 ppm (Bean Aphid (Aphis fabae)) | mortality at 100 ppm [4] | mortality at 1000 ppm [4] | mortality at 100 ppm [5] | mortality at 10 ppm [6] | mortality at 100 ppm [6] | mortality at 10 ppm [7] | mortality at 100 ppm [7] | mortality at 10 ppm [8] | mortality at 300 ppm [5]
1 | CCOP(=S)(OCC)SCSC(C)(C)c1cc(Cl)ccc1Cl [Example 10, S-(2,5-Dichloro-α,α-dimethylbenzylthio)-methyl O,O-Diethyl Phosphorodithioate] | 0% | 100% | 100% |  |  |  |  |  |  |  |  |  |  |  |  |  | 
2 | CCOP(=S)(OCC)SCSC(C)(C)c1cccc(C)c1 [Example 14, S-(m,α,α-Trimethylbenzylthio)methyl O,O-Diethyl Phosphorodithioate] | 100% | 100% | 100% |  |  |  |  |  |  |  |  |  |  |  |  |  | 
3 | CCOP(=S)(OCC)SCSC(C)(CC)c1ccccc1 (stereo not drawn) [Example 21, S-(α-Ethyl-α-methylbenzylthio)methyl O,O-Diethyl Phosphorodithioate] | 0% | 100% | 100% |  |  |  |  |  |  |  |  |  |  |  |  |  | 
4 | CCOP(=S)(OCC)SCSC(CC)(CC)c1ccccc1 [Example 22, S-(α,α-Diethylbenzylthio)methyl O,O-Diethyl Phosphorodithioate] | 50% | 100% | 100% |  |  |  |  |  |  |  |  |  |  |  |  |  | 
5 | COP(=S)(OC)SCSC(C)(C)c1ccc(C#N)cc1 [Example 24, S-(p-Cyano-α,α-dimethylbenzylthio)methyl O,O-Dimethyl Phosphorodithioate] | 0% | 100% | 100% |  |  |  |  |  |  |  |  |  |  |  |  |  | 
6 | CCOP(=S)(OCC)SCSC(C)(C)c1ccccc1 [drawing 6] |  |  |  | 94% | 95% | 85% | 100% | 100% | 100% | 100% | 75% | 40% | 100% | 100% | 100% | 100% | 
7 | CCOP(=S)(OCC)SCSC(C)c1ccccc1 (stereo not shown) [drawing 7] |  |  |  | 70% | 0% | 100% | 100% | 100% | 30% | 100% | 0% | 0% | 100% | 100% | 100% | 100% | 100%
8 | CCOP(=S)(OCC)SC[S+]([O-])C(C)(C)c1ccccc1 (stereo not shown) [drawing 8] |  |  |  | 0% | 100% | 100% | 100% | 100% | 80% | 100% | 100% | 40% | 100% | 100% | 100% |  | 100%
9 | COP(=S)(OC)SCSC(C)(C)c1ccc(C#N)cc1 [drawing 9] |  |  |  | 0% | 90% | 100% | 100% | 100% | 100% | 100% | 100% |  | 90% | 100% | 100% | 60% | 100%
10 | COP(=S)(OC)SCSC(C)(C)c1cc(Cl)ccc1Cl [drawing 10] |  |  |  | 60% | 90% | 50% | 100% | 100% | 100% | 100% | 100% |  |  | 40% | 100% | 70% | 100%
11 | CCOP(=S)(OCC)SCSC(C)(C)c1cc(Cl)ccc1Cl [drawing 11] |  |  |  | 0% | 50% | 50% | 100% | 100% | 100% | 100% | 90% |  | 0% | 50% | 100% | 30% | 100%
12 | COP(=S)(OC)SCSC(C)(C)c1ccccc1 [drawing 13] |  |  |  | 90% | 100% | 80% | 100% | 100% | 100% | 100% | 100% | 80% | 80% | 100% | 100% |  | 100%
13 | CCOP(=S)(OCC)SCSC(C)(C)c1cccc(C)c1 [drawing 17] |  |  |  | 0% |  | 0% | 100% | 100% | 20% | 100% |  |  |  |  | 0% | 0% | 0%
